Data: patent publication US5576433A, “Fluorescent calcium indicators targeted to specific intracellular environments” (priority 1994, dated 1996)
Like-named read-outs stand apart in the source and are kept apart here.

Legend:
[1] = Spectral properties (absorbance and fluorescence with and without calcium); assay type: physicochemical
[2] = Calcium Kd of indicator in solution (Table 1); assay type: binding
Experimental: Calcium concentration was varied by adjusting ratio of CaEGTA/EGTA, so that free calcium varied from less than 1 nM to 1 mM. During the titration, temperature was held constant at 37° C. by a circulating water bath and Mg^++ levels were held at a fixed concentration of 1 mM. The excitation spectra were recorded between 300 and 400 nm by a Photon Technology Intl. Alpha Scan fluorometer where the excitation band width was set 6 nm and the emission was collected at 485 nm with 4 nm band width. […] 1M K2 CaEGTA was added directly to the solution to incrementally increase free calcium.
Calcium concentration was varied by adjusting ratio of CaEGTA/EGTA so that free calcium varied from less than 1 nM to 1 mM. During the titration, temperature was held constant at 37° C. by a circulating water bath and Mg++ levels were held at a fixed concentration of 1 mM. The excitation spectra were recorded between 300 and 400 nm by a Photon Technology Intl. Alpha Scan fluorometer where the excitation band width was set 6 nm and the emission was collected at 485 nm with 4 nm band width. […] 1M K2 CaEGTA was added directly to the solution to incrementally increase free calcium.
^c 100 mM KCl, 10 mM MOPS, pH 7.3, 20° C.

[3] = Magnesium Kd of indicator (Table 1); assay type: binding
Experimental: (§1) The excitation spectrum was recorded of 1 μM FFP18 in 2.5 ml of 130 mM KCl, 20 mM NaCl, 1 mM EGTA, 10 mM MOPS, pH 7.05 at 37° C. Then 25 μl of the solution was replaced with 25 μl of a solution containing 1 μM of that same dye, 111.2 mM MgC12, 12.2 mM EGTA, 10 mM MOPS, pH 7.05. This exchange yielded 1 mM free Mg^2+ 0.2 and 5 mM free Mg^2+ were obtained by successively exchanging 25.25 and 76.53 μl of the original solution with that of the latter solution containing the high concentration of Mg^2+. Emission was collected at 490 nm for fura-PE3 and 485 nm for FFP18, 4 nm band pass, and excitation 5 nm band pass.
as §1, with “1 μM PE3 in 2.5” for “1 μM FFP18 in 2.5”, “1 μM PE3, 111.2 mM” for “1 μM of that same dye, 111.2 mM”, “mM free Mg^2+. The 2 and 5” for “mM free Mg^2+ 0.2 and 5”, “free Mg^2+ concentrations were obtained” for “free Mg^2+ were obtained”

[4] = pH sensitivity of the calcium dissociation constant (Table 2); assay type: binding; conditions: 100 mM KCl, 10 mM MOPS
From the text: The calcium dissociation constant of BAPTA-like calcium chelators and indicators is strongly affected by electron withdrawing effects of substituents on the BAPTA aromatic rings. The zwitterionic indicators described herein each contain an ionizable amine. The difference in electron withdrawing effects of the ionized and unionized amine could potentially communicate to BAPTA, creating a situation were the calcium affinity varied with pH. The design of PE3 and FFP18 was aimed at minimizing or eliminating this possibility by insulating the ionizable amine from the BAPTA ring with an aliphatic spacer containing one or more carbons. To test the effectiveness of this design, the calcium Kd of PE3 and FFP18 was measured at different pH values and compared to the values obtained for fura-2. […] Thus, the aim of the test was to determine whether the piperazine amino group gives the indicator increased pH sensitivity.
On page 36 of U.S. Pat. No. 4,603,209 (Tsien, et. al., 1987 Aug. 25), R2 is claimed as H, CH3, F, Cl, Br and […]. The R2 of PE3 and FFP18 is none of these claimed in that patent.

322 T lymphoma cells [5] = experiment: Leakage of indicator from loaded cells / drift of apparent baseline calcium; assay type: cell-based; conditions: for apparent baseline intracellular calcium / dye leakage (in words): cells loaded with AM ester 1 hour, HBSS with 1% fetal bovine serum
Experimental: The T cell lymphoma cell line was loaded with 1 mM fura-2/AM or 1 mM PE3/AM for 30 minutes. Afterwards, an aliquot of dye loaded cells were placed in a cuvette and the fluorescence at 360 nm was recorded. Then, 5 mM Ni^2+ was added to quench any indicator that was outside the cells. The remainder of the loaded cell suspension was incubated for 1 hour at 37° C. Then a second aliquot was removed placed in a cuvette together with 5 mM Ni^2+ and fluorescence recorded. The difference in fluorescence of Ni^2+ treated cells between the 0 hour time point and the one hour time point represents indicator that leaked out of the cells into the extracellular medium over the 1 hour incubation period.
A quantity of 322 T-lymphoma cells were loaded with either 1 mM fura-2/AM or 1 mM PE3/AM for 1 hour, washed and resuspended in HBSS containing 1% fetal bovine serum. An aliquot of the loaded cell suspension was then placed in the cuvette of an Alpha Scan fluorometer and the fluorescence signal was recorded over time, as the cells were alternately excited at 340 nm and 380 nm. Calcium concentration was calculated from the 350/385 nm fluorescence ratio as described by Tsien, et al.(1985).
The T cell lymphoma cell line was loaded with 1 mM fura-2/AM or 1 nM PE3/AM as for Example 3. Afterwards, an aliquot of dye loaded cells were placed in a cuvette and the fluorescense at 360 nm was recorded. Then 5 nM Ni^2+ was added to quench any indicator that was outside the cells. The remainder of the loaded cell suspension was incubated for 1 hour at 37° C. Then a second aliquot was removed, placed in a cuvette together with 5 mM Ni^2+ and fluorescense recorded. The difference in fluorescense of Ni^2+ treated cells between 0 hour time point and the one hour time point represents indicator that leaked out of the cells into the extracellular medium over the 1 hour incubation period.

322 T lymphoma cells [6] = experiment: Response of PE3 loaded cells to changes in intracellular calcium
[7] = tested on: leakage and compartmentalization of fura-2; conditions: cited from earlier work
[8] = tested on: intracellular [Ca^2+ ] transients; experiment: Recorded versus calculated calcium influx; assay type: cell-based; conditions: 4 cells
Experimental: FIG. 13 and FIG. 13A show the relationship between the intracellular [Ca^2+ ] transients over time for fura-2 and FFP18. In Example 7, the relationship between the intracellular [Ca^2+ ] transients reported by FFP18 or fura-2 and calculated [Ca^2+ ] transients representing calcium influx are shown as a function of time. The amount of Ca^2+ entering the cell across the membrane was calculated by integrating the inward current signal and converting the charge to moles of Ca^2+ per cell volume. This [Ca^2+ ] was divided by the average buffering capacity of these cells. […] The [Ca^2+ ] transients reported by the calcium indicators are shown by the more noisy traces.
The amount of Ca^2+ entering the cell across the membrane was calculated by integrating the inward current signal and converting the charge to moles of Ca^2+ per cell volume. This [Ca^2+ ] was divided by the average buffering capacity of these cells. […]
In 4 cells where the [Ca^2+ ] transient was recorded using fura-2, the magnitude of the recorded and calculated increases in [Ca^2+ ] were similar. The ratio of calcium influx measured using fura-2 to the calcium influx calculated from the integral of the current at the 200 msec time point gives a value of 0.9+/-0.05 [nM (recorded)/nM(calculated)].

Tradescantia cells = conditions: within a short time; Hepler and Poenie, unpublished; cited from earlier work
muscle calcium = conditions: Hollingsworth and Baylor; cited from earlier work
[9] = tested on: calcium transient during mitosis; conditions: Kao et al.; cited from earlier work
[10] = read-out: apparent Kd for EGTA (assumed), cited from earlier work
PTK1 cells = conditions: cited from earlier work
[11] = pH 6.9, 20° C., read-out: calcium Kd at pH 6.9
[12] = pH 7.3, 20° C., read-out: calcium Kd at pH 7.3

O=C(O)CN1CCN(C(=O)CCc2ccc(N(CC(=O)O)CC(=O)O)c(OCCOc3cc4cc(-c5ncc(C(=O)O)o5)oc4cc3N(CC(=O)O)CC(=O)O)c2)CC1 [PE3]
Fluorescence Quantum Efficiency, Ca bound ([1]; Ca bound): 0.27 | Peak Absorption Wavelength, Ca bound ([1]; Ca bound): 335 nm | Peak Emission Wavelength, Ca bound ([1]; Ca bound): 495 nm | Fluorescence Quantum Efficiency, Free anion ([1]; Free anion): .043 | Peak Absorption Wavelength, Free anion ([1]; Free anion): 364 nm | Peak Emission Wavelength, Free anion ([1]; Free anion): 508 nm | absorbance, excitation, emission and quantum efficiency (in words) ([1]; presence and absence of calcium): all typical of fura-2 | calcium binding affinity compared with fura-2 (in words) [2]: somewhat weaker than that of fura-2 | Kd ([2]; 20° C., 100 mM KCl, 10 mM MOPS, pH 7.3 (footnote c)): 0.204 µM | Kd ([2]; 37° C., 130 mM KCl, 20 mM NaCl, 1 mM free MgCl2, MOPS, pH 7.05 (footnote a)): 0.209 µM | Kd ([3]; 20° C.): 4300 µM | Kd ([3]; 37° C.): 4000 µM | Kd [4, 11]: 0.269 ± 0.003 µM | Kd [4, 12]: 0.204 ± 0.004 µM | leakage and compartmentalization (in words) (322 T lymphoma cells [5]): resists leakage and compartmentalization | apparent baseline intracellular calcium / dye leakage (in words) (322 T lymphoma cells [5]): small change in baseline intracellular calcium levels reflects the lower leakage rate out of the cell | fluorescence response at 340 nm to increase in calcium (322 T lymphoma cells [6]; after Concanavalin A): fluorescense at 340 nm increases | fluorescence response at 380 nm to increase in calcium (322 T lymphoma cells [6]; after Concanavalin A): fluorescense at 380 nm decreases | fluorescence response at 340 nm and 380 nm (322 T lymphoma cells [6]; after ionomycin): even greater response of the indicator at 340 nm and 380 nm | fluorescence after reducing free calcium with EGTA (322 T lymphoma cells [6]; digitonin lysed, EGTA added): fluorescense at 380 nm now becomes much brighter while the fluorescense at 340 becomes dim

CCCN(CCC)S(=O)(=O)c1ccc(C(=O)O)cc1 [probenecid]
effect on leakage and compartmentalization of fura-2 [7]: help reduce leakage and compartmentalization

Cc1ccc(N(CC(=O)O)CC(=O)O)c(OCCOc2cc3cc(-c4ncc(C(=O)O)o4)oc3cc2N(CC(=O)O)CC(=O)O)c1 [fura-2]
Kd [4, 11]: 0.216 ± 0.004 µM | Kd [4, 12]: 0.161 ± 0.002 µM | apparent baseline intracellular calcium / dye leakage (in words) (322 T lymphoma cells [5]): continuous increase in apparent intracellular calcium levels | magnitude of recorded versus calculated increase in [Ca^2+ ] (in words) [8]: similar | ratio of calcium influx recorded by indicator to calcium influx calculated ([8]; calculated from integral of the current at the 200 msec time point (time point stated for fura-2)): 0.9+/-0.05 nM (recorded)/nM(calculated) | transfer of cytosolic indicator to vacuole (in words) (Tradescantia cells): virtually all of the cytosolic indicator was transferred to the vacuole | ability to follow rapid changes in muscle calcium (muscle calcium): not fast enough to follow rapid changes in muscle calcium and was unable to track calcium levels at their peak | detection of calcium transient during mitosis [9]: seldom seen

Cc1ccc(N(CC(=O)O)CC(=O)O)c(OCCOc2cc(-c3c4ccc(=[N+](C)C)cc-4oc4cc(N(C)C)ccc34)ccc2N(CC(=O)O)CC(=O)O)c1 [rhod-2]
transfer of cytosolic indicator to vacuole (in words) (Tradescantia cells): differed in this respect

O=C(O)CN(CCOCCOCCN(CC(=O)O)CC(=O)O)CC(=O)O [EGTA, ethylene glycol bis(beta-aminoethyl ether)N,N,N'N'tetraacetic acid]
Kd ([10]; pH 6.9, 20° C.): 0.594 µM | Kd ([10]; pH 7, 20° C.): 0.0954 µM

CC(=O)OCOC(=O)CN(CC(=O)OCOC(C)=O)c1ccc(C)cc1OCCOc1cc2cc(-c3ncc(C(=O)OCOC(C)=O)o3)oc2cc1N(CC(=O)OCOC(C)=O)CC(=O)OCOC(C)=O [fura-2/AM]
loading in cells (in words) (PTK1 cells): consistent failure

O=C1C(CC[S+]([O-])c2ccccc2)C(=O)N(c2ccccc2)N1c1ccccc1 (stereo not shown) [sulfinpyrazone]
effect on leakage and compartmentalization of fura-2 [7]: help reduce leakage and compartmentalization
